These results are taken from US11882834B2, “Microbiocidal thiazole derivatives” (SYNGENTA PARTICIPATIONS AG, priority 2017, dated 2024).

Experiment [1] has as its system Phaeosphaeria nodorum (Septoria nodorum). In words: Phaeosphaeria nodorum (Septoria nodorum) / wheat / leaf disc preventative (glume blotch). The class given is in vivo. As to conditions: 200 ppm in the formulation, wheat leaf segments cv. Kanzler, compared to untreated, 5-7 days after application. The method, then:
Phaeosphaeria nodorum (Septoria nodorum)/Wheat/Leaf Disc Preventative (Glume Blotch) Wheat leaf segments cv. Kanzler are placed on agar in a multiwell plate (24-well format) and sprayed with the formulated test compound diluted in water. The leaf disks are inoculated with a spore suspension of the fungus 2 days after application. The inoculated test leaf disks are incubated at 20° C. and 75% rh under a light regime of 12 h light/12 h darkness in a climate cabinet and the activity of a compound is assessed as percent disease control compared to untreated when an appropriate level of disease damage appears in untreated check leaf disks (5-7 days after application).

For experiment [2], the system named is Mycosphaerella arachidis (Cercospora arachidicola). Briefly: Mycosphaerella arachidis (Cercospora arachidicola) / liquid culture (early leaf spot). The class given is cell-based. The following applies: 200 ppm in the formulation; liquid culture (PDB), growth determined photometrically 4-5 days after application; compared to untreated. The method, then:
Mycosphaerella arachidis (Cercospora arachidicola)/Liquid Culture (Early Leaf Spot) Conidia of the fungus from cryogenic storage are directly mixed into nutrient broth (PDB potato dextrose broth). After placing a (DMSO) solution of test compound into a microtiter plate (96-well format), the nutrient broth containing the fungal spores is added. The test plates are incubated at 24° C. and the inhibition of growth is determined photometrically 4-5 days after application.

Regarding `Cc1sc(Nc2cc(F)nc(F)c2)nc1C(=O)NC1CCC1(C)C` (centres unmarked) [Compound I.r.19, 2-[(2,6-difluoro-4-pyridyl)amino]-N-(2,2-dimethylcyclobutyl)-5-methyl-thiazole-4-carboxamide], the disease control entry in experiment [1] and in experiment [2] was “at least 80%” in each case.
